This test deals with senescent IMR90 ER:RAS cells (4-OHT-induced). Description: Nuclei count (Hoechst, high content imaging) senolytic assay, oncogene-induced senescence (OIS) model, senescent cells. The test is classed as cell-based, human. Particulars: for viability at 10 µM / viability at 4.677 µM / viability at 2.188 µM / viability at 1 µM / viability at 0.4677 µM / viability at 0.2188 µM / viability at 0.1 µM / viability at 0.04677 µM / viability at 0.02188 µM / viability at 0.01 µM: Homo sapiens. An excerpt: To test for senolytic activity, we compared the effect of each compound on the total cell number (automated high content image-based analysis of total number of nuclei per well) in non-senescent and senescent IMR90 ER:RAS cultures treated with the top hits from the computational screen (Figs. 2e and 3a–d and Supplementary Fig. 4a–c). The drop in cell number compared to untreated controls is indicated by the nuclei count and reflects cell death[13],[15]. As positive control, we employed ouabain, a cardiac glycoside with well characterised senolytic activity.
We performed experimental validation of the compounds with z-score > 8 (Fig. 2e). […] We employed two cellular models of senescence: one of OIS and a second one of TIS. For the OIS case, we utilised IMR90 ER:RAS cells with 4-OHT at 100 nM. […] For the TIS model, we used A549 cells with etoposide at 100 μM. The exposure of the cells to etoposide lasted 48 h, after which period the cells were cultivated for a further three days with normal media.
IMR90 (CCL-186) human foetal lung fibroblasts and A549 (CCL-185) human lung adenocarcinoma cells were obtained from the American Type Culture Collection (ATCC, Manassas, VA). The cell lines were confirmed to be mycoplasma negative (Lonza MycoAlert, cat #LT07-118). IMR90 ER:RAS is a derivative of IMR90 cells expressing a switchable version of oncogenic H-Ras[84]. IMR90 ER:RAS and A549 cells were maintained in Dulbecco’s Modified Eagle Medium (DMEM, ThermoFisher) supplemented with foetal bovine serum (10%), L-glutamine (2 mM, ThermoFisher), and antibiotic-antimycotic solution (1%, ThermoFisher) and incubated under standard tissue culture conditions (37 °C and 5% CO2). For induction of the senescent phenotype, IMR90-ER:RAS cells were cultured in hydroxytamoxifen (4-OHT) (Sigma) added media at 100 nM final concentration. IMR90 were kept in culture for over 27 passages for replicative senescence. Cells were tested for mycoplasma on a regular basis.
Cells were seeded (50 μL per well) into 384-well plates (IMR90 ER:RAS cells in Nunc Optical Bottom Polybase Microplates [#142761, Thermo Scientific, Rochester, NY] and A549 cells in CELLSTAR Cell Culture Microplates [#781091, Greiner Bio-One, Kremsmünster, Austria]). Cells were incubated under standard tissue culture conditions for 24 h before the addition of compounds. Passage 14 IMR90 ER:RAS cells were seeded at 1300 cells per well in the control condition, and at 1600 cells per well in the senescent case. Passage 34 A549 cells were seeded at 7000 cells per well in the control condition, and at 10,000 cells per well in the senescent case.
Dose response plates were prepared with a DMSO control and a 10-point […] concentration range, and added to the compounds using a D300e digital dispenser (Tecan Trading AG, Switzerland) at a final concentration of between 10 μM and 10 nM. Every screened condition was carried out in triplicate. After 72 h of incubation with exposure to the compounds, cells were fixed by the addition of an equal volume of formaldehyde (8%, 50 μL; #BP531-500, Fisher Bioreagents, Fisher Scientific, Loughborough, Leicestershire) to the existing media, incubated at room temperature (30 min), and washed three times in phosphate-buffered saline (PBS). Cells were then permeabilised in Triton-X100 (0.1%, 50 μL) and incubated at room temperature (30 min) followed by three more washes with PBS.
Cells were stained with Hoechst 33342 for nuclei count (excitation/emission wavelength at 387/447 […], DAPI channel, original concentration at 10 mg/ml, final concentration at 2 μg/ml; H1399, Molecular Probes, Eugene, OR). The staining solution was prepared in bovine serum albumin solution (10%). The staining solution was added to each well (30 μL) and incubated in the dark at room temperature (30 min), followed by three washes with PBS and no final aspiration. Plates were foil sealed.

[1] abbreviates: IMR-90, 72 h, Senescent, log (dose) [M] -5, 72 h, mean n=3 (Fig 3C), read-out: Mean % Cell Survival.
The mark [2] stands for this setting: IMR-90, 72 h, Senescent, log (dose) [M] -5.33, 72 h, mean n=3 (Fig 3C), read-out: Mean % Cell Survival.
Setting [3] is: IMR-90, 72 h, Senescent, log (dose) [M] -5.66, 72 h, mean n=3 (Fig 3C), read-out: Mean % Cell Survival.
The mark [4] stands for this setting: IMR-90, 72 h, Senescent, log (dose) [M] -6, 72 h, mean n=3 (Fig 3C), read-out: Mean % Cell Survival.
The mark [5] stands for this setting: IMR-90, 72 h, Senescent, log (dose) [M] -6.33, 72 h, mean n=3 (Fig 3C), read-out: Mean % Cell Survival.
Where [6] appears, read: IMR-90, 72 h, Senescent, log (dose) [M] -6.66, 72 h, mean n=3 (Fig 3C), read-out: Mean % Cell Survival.
The mark [7] stands for this setting: IMR-90, 72 h, Senescent, log (dose) [M] -7, 72 h, mean n=3 (Fig 3C), read-out: Mean % Cell Survival.
The mark [8] stands for this setting: IMR-90, 72 h, Senescent, log (dose) [M] -7.33, 72 h, mean n=3 (Fig 3C), read-out: Mean % Cell Survival.
[9] abbreviates: IMR-90, 72 h, Senescent, log (dose) [M] -7.66, 72 h, mean n=3 (Fig 3C), read-out: Mean % Cell Survival.
The mark [10] stands for this setting: IMR-90, 72 h, Senescent, log (dose) [M] -8, 72 h, mean n=3 (Fig 3C), read-out: Mean % Cell Survival.

Several values for one entry are separate records, joined by “and”; a condition that tells them apart may be missing. Equal entries are not always repeated. Where two headings read alike, the source gives them in different places.

In the case of `CO[C@H]1C[C@@H]2CC[C@@H](C)[C@@](O)(O2)C(=O)C(=O)N2CCCC[C@H]2C(=O)O[C@H]([C@H](C)C[C@@H]2CC[C@@H](OCCO)[C@H](OC)C2)CC(=O)[C@H](C)/C=C(\C)[C@@H](O)[C@@H](OC)C(=O)[C@H](C)C[C@H](C)/C=C/C=C/C=C/1C` [Everolimus, everolimus, reference compound], the viability at 10 µM under setting [1] was 82.2% and the viability at 10 µM (IMR-90, Senescent, log (dose) [M] -5, read-out: % Cell Survival) was 67.8%. In addition, the viability at 4.677 µM stood at 80% under setting [2] and 92.4% (IMR-90, Senescent, log (dose) [M] -5.33, read-out: % Cell Survival). The viability at 2.188 µM reads like this: under setting [3], 87.3%; (IMR-90, Senescent, log (dose) [M] -5.66, read-out: % Cell Survival) 80%. In addition, the viability at 1 µM under setting [4] was 92.8%. In addition, the viability at 0.4677 µM under setting [5] came out at 92.3%. The viability at 0.2188 µM runs as follows: under setting [6], 92.6%; (IMR-90, Senescent, log (dose) [M] -6.66, read-out: % Cell Survival) 80.7%. Also, the viability at 0.1 µM reads like this: under setting [7], 93.7%; (IMR-90, Senescent, log (dose) [M] -7, read-out: % Cell Survival) 80.3%. Also, the viability at 0.04677 µM under setting [8] stood at 88.2%. Also, under setting [9], the viability at 0.02188 µM was 90.5%. For the same compound, the viability at 0.01 µM under setting [10] worked out at 93.7%.

As for `CC(C)=CCc1c(O)cc2oc3cc(O)c(O)c(CC=C(C)C)c3c(=O)c2c1O` [Gamma mangostin, gamma mangostin], the “% Cell Survival” value runs as follows: (Senescent cells, log (dose) [M] -5, individual replicates, SUP FIG 4C) 68.9759% and 85.4054% and 104.1% and 60.479%; (Senescent cells, log (dose) [M] -5.33, individual replicates, SUP FIG 4C) 98.1928% and 112.613% and 125.668% and 83.9521%; (Senescent cells, log (dose) [M] -5.66, individual replicates, SUP FIG 4C) 81.0241% and 178.198% and 139.216% and 80.9581%; (Senescent cells, log (dose) [M] -6, individual replicates, SUP FIG 4C) 64.6084% and 123.964% and 135.651% and 83.2335%; (Senescent cells, log (dose) [M] -6.33, individual replicates, SUP FIG 4C) 91.7169% and 121.982% and 131.907% and 40.8383%; (Senescent cells, log (dose) [M] -6.66, individual replicates, SUP FIG 4C) 78.1627% and 116.757% and 113.904% and 77.1257%. For the same compound, the “% Cell Survival” value is, setting by setting: (Senescent cells, log (dose) [M] -7, individual replicates, SUP FIG 4C) 99.8494% and 112.432% and 120.856% and 67.0659%; (Senescent cells, log (dose) [M] -7.33, individual replicates, SUP FIG 4C) 98.3434% and 101.081% and 114.082% and 90.8982%; (Senescent cells, log (dose) [M] -7.66, individual replicates, SUP FIG 4C) 107.681% and 108.829% and 116.934% and 93.4132%; (Senescent cells, log (dose) [M] -8, individual replicates, SUP FIG 4C) 107.53% and 115.315% and 113.725% and 84.9102%; (Senescent, log (dose) [M] -5) 105.907% and 101.805% and 105.566%; (Senescent, log (dose) [M] -5.33) 105.42% and 104.907% and 107.486%. Besides, the “% Cell Survival” value (Senescent, log (dose) [M] -5.66) is 112.424% and 103.215% and 110.173%; the “% Cell Survival” value (Senescent, log (dose) [M] -6) was 104.019% and 94.1906% and 105.054%; the “% Cell Survival” value (Senescent, log (dose) [M] -6.33) is 116.322% and 101.974% and 111.9%; the “% Cell Survival” value (Senescent, log (dose) [M] -6.66) is 112.85% and 97.8003% and 108.125%; the “% Cell Survival” value (Senescent, log (dose) [M] -7) is 120.95% and 109.419% and 113.308%; the “% Cell Survival” value (Senescent, log (dose) [M] -7.33) was 110.231% and 111.901% and 120.282%. Besides, the “% Cell Survival” value is, setting by setting: (Senescent, log (dose) [M] -7.66) 99.6955% and 109.475% and 108.701%; (Senescent, log (dose) [M] -8) 101.705% and 108.629% and 104.99%. The “Mean % Cell Survival” value (Senescent, log (dose) [M] -5, 72 h, mean n=3 (Fig 3C)) was found to be 79.74%; the “Mean % Cell Survival” value (Senescent, log (dose) [M] -5.33, 72 h, mean n=3 (Fig 3C)) is given as 105.106%; the “Mean % Cell Survival” value (Senescent, log (dose) [M] -5.66, 72 h, mean n=3 (Fig 3C)) is given as 119.849%; the “Mean % Cell Survival” value (Senescent, log (dose) [M] -6, 72 h, mean n=3 (Fig 3C)) was determined as 101.864%; the “Mean % Cell Survival” value (Senescent, log (dose) [M] -6.33, 72 h, mean n=3 (Fig 3C)) is listed as 96.6111%; the “Mean % Cell Survival” value (Senescent, log (dose) [M] -6.66, 72 h, mean n=3 (Fig 3C)) came to 96.4872%. The “Mean % Cell Survival” value is, setting by setting: (Senescent, log (dose) [M] -7, 72 h, mean n=3 (Fig 3C)) 100.051%; (Senescent, log (dose) [M] -7.33, 72 h, mean n=3 (Fig 3C)) 101.101%; (Senescent, log (dose) [M] -7.66, 72 h, mean n=3 (Fig 3C)) 106.714%; (Senescent, log (dose) [M] -8, 72 h, mean n=3 (Fig 3C)) 105.37%.

In the case of `COc1cc(/C=C/C(=O)O[C@H]2CC[C@]34C[C@]35CC[C@]3(C)[C@@H]([C@H](C)CCC=C(C)C)CC[C@@]3(C)[C@@H]5CC[C@H]4C2(C)C)ccc1O` [Gamma oryzanol, gamma oryzanol], the viability at 10 µM by setting is: under setting [1], 145%; (IMR-90, Senescent cells, log (dose) [M] -5, individual replicates, SUP FIG 4C, read-out: % Cell Survival) 150%. For the same compound, the viability at 4.677 µM under setting [2] was 134%. Also, the viability at 2.188 µM is, setting by setting: under setting [3], 135%; (IMR-90, Senescent cells, log (dose) [M] -5.66, individual replicates, SUP FIG 4C, read-out: % Cell Survival) 137%. Besides, under setting [4], the viability at 1 µM came to 139%. Also, the viability at 0.4677 µM stood at 141% under setting [5] and 153% (IMR-90, Senescent cells, log (dose) [M] -6.33, individual replicates, SUP FIG 4C, read-out: % Cell Survival). The viability at 0.2188 µM under setting [6] stood at 142%. Besides, the viability at 0.1 µM under setting [7] turned out to be 132%. Moreover, the viability at 0.04677 µM under setting [8] amounted to 151%. The viability at 0.02188 µM under setting [9] came to 154%. Also, the viability at 0.01 µM runs as follows: under setting [10], 125%; (IMR-90, Senescent, log (dose) [M] -8, read-out: % Cell Survival) 81.6%. Moreover, the “senolytic activity (in words)” value (experimental screen, OIS IMR90 ER:RAS) was “inactive”.
